Where “and” joins values, the source holds several entries; their conditions need not be identical. Equal values may be shown once. Read-outs that look alike come from different tables or passages of the source.
Tests used:
pol η = molecular target: T1, pol η (Homo sapiens, UniProt Q9Y253); assay type: biochemical; conditions: for Kd: read-out: apparent Kd; for increase in G·T misincorporation rate constant (kpol), W versus B: G opposite T, W sequence compared to B sequence
T1 sequence (Q9Y253 1-713): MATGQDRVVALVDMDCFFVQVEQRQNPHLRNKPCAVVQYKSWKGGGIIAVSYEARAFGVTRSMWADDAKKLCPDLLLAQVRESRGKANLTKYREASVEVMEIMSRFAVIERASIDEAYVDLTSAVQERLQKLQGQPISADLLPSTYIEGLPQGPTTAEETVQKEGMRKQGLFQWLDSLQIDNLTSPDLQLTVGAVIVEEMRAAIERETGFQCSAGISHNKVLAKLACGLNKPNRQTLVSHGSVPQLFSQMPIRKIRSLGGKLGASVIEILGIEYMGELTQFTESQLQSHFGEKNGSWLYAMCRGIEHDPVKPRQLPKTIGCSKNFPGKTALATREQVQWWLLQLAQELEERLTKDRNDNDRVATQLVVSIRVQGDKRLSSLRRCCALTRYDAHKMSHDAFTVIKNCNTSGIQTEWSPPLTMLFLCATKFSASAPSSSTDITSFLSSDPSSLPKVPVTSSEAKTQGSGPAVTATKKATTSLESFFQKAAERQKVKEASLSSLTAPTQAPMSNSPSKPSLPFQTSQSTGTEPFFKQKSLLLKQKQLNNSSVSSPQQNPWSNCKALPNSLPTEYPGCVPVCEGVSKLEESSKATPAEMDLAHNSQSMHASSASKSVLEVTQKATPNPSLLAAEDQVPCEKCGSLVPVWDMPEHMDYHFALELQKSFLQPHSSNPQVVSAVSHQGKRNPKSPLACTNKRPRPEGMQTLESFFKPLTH

[1] = Potentiometric titration of leaving-group acids; assay type: physicochemical; conditions: 0.1 M KCl, 25 °C
[2] = A opposite T (correct), B sequence
[3] = A opposite T (correct), W sequence
[4] = G opposite T (mispair), B sequence
[5] = G opposite T (mispair), W sequence

| Compound | Kd (pol η; [2]) [µM] | Kd (pol η; [3]) [µM] | kpol (chemical misincorporation rate constant) (pol η; [4]) [s⁻¹] | kpol (chemical misincorporation rate constant) (pol η; [5]) [s⁻¹] | increase in G·T misincorporation rate constant (kpol), W versus B (pol η) | Kd (pol η; [4]) [µM] | Kd (pol η; [5]) [µM] | also measured |
| --- | --- | --- | --- | --- | --- | --- | --- | --- |
| Nc1ncnc2c1ncn2[C@H]1CC(O)[C@@H](COP(=O)(O)OP(=O)(O)C(F)P(=O)(O)O)O1 (stereo partly shown) [dATP-CHF] | 190 ± 80 | 140 ± 20 |  |  |  |  |  |  |
| Nc1ncnc2c1ncn2[C@H]1C[C@H](O)[C@@H](COP(=O)(O)OP(=O)(O)OP(=O)(O)O)O1 [dATP] | 9.4 ± 3.1 | 7.1 ± 2.1 |  |  |  |  |  |  |
| Nc1nc2c(ncn2C2CC(O)C(COP(=O)(O)OP(=O)(O)C(F)P(=O)(O)O)O2)c(=O)[nH]1 (stereo not shown) [dGTP-CHF] |  |  | 0.032 ± 0.005 | 0.12 ± 0.00 | 3.8 fold and 4 fold | 370 ± 60 | 390 ± 20 | increase in G·T misincorporation rate constant (kpol), W versus B (pol η; listed as CHF-dG): 3–4 fold |
| Nc1nc2c(ncn2[C@H]2C[C@H](O)[C@@H](COP(=O)(O)OP(=O)(O)OP(=O)(O)O)O2)c(=O)[nH]1 [dGTP] |  |  | 0.21 ± 0.02 | 0.86 ± 0.02 | ~ 4 fold and 3–4 fold and 4 fold | 30 ± 3 | 20 ± 4 |  |
| O=P(O)(O)NP(=O)(O)O [imidodiphosphoric acid] |  |  |  |  |  |  |  | pKa1 [1]: 2.01; pKa2 [1]: 2.81; pKa3 [1]: 7.11; pKa4 (soln) ([1]; imidodiphosphoric acid (NH leaving group)): 9.70 |

Reference: paper PMC6681824 (Biochemistry, 2019)
